Results published in patent US20140343017A1, “PYRROLE COMPOUND” (Kabushiki Kaisha Yakult Honsha, priority 2012, published 2014).

What was measured:
Test in all cases: Inhibitory effect on growth of human cancer cells (in vitro), WST-8
Assay type in all cases: cell-based
[1] = test system: human colorectal cancer HT-29 cells; conditions: Homo sapiens, HT-29, 96 h, 96 hours culture, read-out: IC50 (nM) HT29
Description: (§1) Each pyrrole compound of the present invention was studied for its effects on the growth of human non-small cell lung cancer A549 cells and human colorectal cancer HT-29 cells and HCT116 cells. The cells of each line were suspended in an RPMI1640 medium supplemented with 10% fetal bovine serum and inoculated at a cell density of 1000 cells/50 μL/well to a 96-well plate. After overnight culture, each compound diluted with a medium was added thereto at a concentration of 50 μL/well, and the cells were further cultured for 96 hours. After the completion of culture, WST-8 (Seikagaku Corp.) was added thereto at a concentration of 10 μL/well, and the cells were cultured at 37° C. for approximately 1 hour under 5% CO2 conditions, followed by measurement of absorbance at 450 nm.

[2] = test system: human colorectal cancer HCT116 cells; conditions: Homo sapiens, HCT-116, 96 h, 96 hours culture
Description: as §1

[3] = test system: human non-small cell lung cancer A549 cells; conditions: Homo sapiens, A549, 96 h, 96 hours culture
Description: as §1

Row | Structure (SMILES) | IC50 [1] [nM] | IC50 [2] [nM] | IC50 [3] [nM]
1 | Cc1c(-c2nnn(CCO)n2)[nH]c(C(C)(C)O)c1C(=O)c1cccc(Br)c1 [Compound 285, (3-bromophenyl)(5-(2-(2-hydroxyethyl)-2H-tetrazol-5-yl)-2-(2-hydroxypropan-2-yl)-4-methyl-1H-pyrrol-3-yl)methanone] | 598 | 246 | 595
2 | COc1ccc(C(=O)c2c(C#N)[nH]c(-c3nnn(CCOC(C)=O)n3)c2C)cc1Br [Compound 138, 2-(5-(4-(3-bromo-4-methoxybenzoyl)-5-cyano-3-methyl-1H-pyrrol-2-yl)-2H-tetrazol-2-yl)ethyl acetate] | 170 | 167 | 239
3 | Cc1[nH]c(-c2nnn(CCO)n2)c(C)c1C(=O)c1cccc(CO)c1 [Compound 163, (5-(2-(2-hydroxyethyl)-2H-tetrazol-5-yl)-2,4-dimethyl-1H-pyrrol-3-yl)(3-(hydroxymethyl)phenyl)methanone] | 73.8 | 67.5 | 305
4 | Cc1[nH]c(-c2nnc(C3CC3C)o2)c(C)c1C(=O)c1cccc(Br)c1 (stereo not drawn) [Compound 190, (3-bromophenyl) (2,4-dimethyl-5-(5-(2-methylcyclopropyl)-1,3,4-oxadiazol-2-yl)-1H-pyrrol-3-yl)methanone] | 192 | 219 | 266
5 | Cc1[nH]c(-c2nnc(CO)o2)c(C)c1C(=O)c1cc(Br)ccc1O [Compound 203, (5-bromo-2-hydroxyphenyl)(5-(5-(hydroxymethyl)-1,3,4-oxadiazol-2-yl)-2,4-dimethyl-1H-pyrrol-3-yl)methanone] | 171 | 152 | 210
6 | COc1ccc(C(=O)c2c(CN3CCCCC3)[nH]c(-c3nnc(C4CC4)o3)c2C)cc1Br [Compound 270, (3-bromo-4-methoxyphenyl)(5-(5-cyclopropyl-1,3,4-oxadiazol-2-yl)-4-methyl-2-(piperidin-1-ylmethyl)-1H-pyrrol-3-yl)methanone] | 725 | 819 | 859
7 | Cc1[nH]c(-c2nnc(C3CC3)o2)c(C)c1C(=O)c1ccc(OCCN(C)C)c(Br)c1 [Compound 257, (3-bromo-4-(2-(dimethylamino)ethoxy)phenyl) (5-(5-cyclopropyl-1,3,4-oxadiazol-2-yl)-2,4-dimethyl-1H-pyrrol-3-yl)methanone] | 384 | 865 | 865
8 | Cc1[nH]c(-c2nnc(C(C)C)o2)c(C)c1C(=O)c1cccc(Br)c1 [Compound 178, (3-bromophenyl) (5-(5-isopropyl-1,3,4-oxadiazol-2-yl)-2,4-dimethyl-1H-pyrrol-3-yl)methanone] | 36.9 | 45.1 | 71.8
9 | CCc1nnc(-c2c(C)c(C(=O)c3cccc(Br)c3)c(C)n2CCOC(C)=O)o1 [Compound 235, 2-(3-(3-bromobenzoyl)-2,4-dimethyl-5-(5-ethyl-1,3,4-oxadiazol-2-yl)-1H-pyrrol-1-yl)ethyl acetate] | 172 | 239 | 738
10 | COc1ccc(C(=O)c2c(/C=N\O)[nH]c(-c3nnn(CCOC(C)=O)n3)c2C)cc1Br [Compound 170, (Z)-2-(5-(4-(3-bromo-4-methoxybenzoyl)-5-((hydroxyimino)methyl)-3-methyl-1H-pyrrol-2-yl)-2H-tetrazol-2-yl)ethyl acetate] | 143 | 133 | 197
11 | COc1ccc(C(=O)c2c(C(N)=O)[nH]c(-c3nnn(CCO)n3)c2C)cc1Br [Compound 150, 3-(3-bromo-4-methoxybenzoyl)-5-(2-(2-hydroxyethyl)-2H-tetrazol-5-yl)-4-methyl-1H-pyrrole-2-carboxamide] | 145 | 181 | 192
12 | Cc1[nH]c(-c2nnn(CCN)n2)c(C)c1C(=O)c1cccc(Br)c1 [Compound 103, (5-(2-(2-aminoethyl)-2H-tetrazol-5-yl)-2,4-dimethyl-1H-pyrrol-3-yl)(3-bromophenyl)methanone] | 43.3 | 182 | 87.8
13 | Cc1c(-c2nnc(C3CC3)o2)[nH]c(C2SCCCS2)c1C(=O)c1cccc(Br)c1 [Compound 200, (3-bromophenyl) (5-(5-cyclopropyl-1,3,4-oxadiazol-2-yl)-2-(1,3-dithian-2-yl)-4-methyl-1H-pyrrol-3-yl)methanone] | 209 | 647 | 389

Continued by falling IC50 [1], values first:

Row | IC50 [1] [nM] | IC50 [2] [nM] | IC50 [3] [nM] | Structure (SMILES)
14 | 36.2 | 43.2 | 95.9 | Cc1[nH]c(-c2nnc(C3CC3)o2)c(C)c1C(=O)c1ccc(OCCN)c(Br)c1 [Compound 256, (4-(2-aminoethoxy)-3-bromophenyl)(5-(5-cyclopropyl-1,3,4-oxadiazol-2-yl)-2,4-dimethyl-1H-pyrrol-3-yl)methanone]
15 | 35.7 | 37.7 | 47.4 | CC(=O)OCCn1nnc(-c2[nH]c(CCl)c(C(=O)c3cccc(Br)c3)c2C)n1 [Compound 171, 2-(5-(4-(3-bromobenzoyl)-5-(chloromethyl)-3-methyl-1H-pyrrol-2-yl)-2H-tetrazol-2-yl)ethyl acetate]
16 | 34.2 | 41.2 | 46.9 | COc1ccc(C(=O)c2c(CO)[nH]c(-c3nnn(CCO)n3)c2C)cc1Br [Compound 129, (3-bromo-4-methoxyphenyl)(5-(2-(2-hydroxyethyl)-2H-tetrazol-5-yl)-2-(hydroxymethyl)-4-methyl-1H-pyrrol-3-yl)methanone]
17 | 33.2 | 44.5 | 55.1 | Cc1[nH]c(-c2nnc(C3CC3)o2)c(C)c1C(=O)c1ccc(O)c(Br)c1 [Compound 254, (3-bromo-4-hydroxyphenyl)(5-(5-cyclopropyl-1,3,4-oxadiazol-2-yl)-2,4-dimethyl-1H-pyrrol-3-yl)methanone]
18 | 30.9 | 45.4 | 50.5 | COc1ccc(Br)cc1C(=O)c1c(C=O)[nH]c(-c2nnc(C3CC3)o2)c1C [Compound 258, 3-(5-bromo-2-methoxybenzoyl)-5-(5-cyclopropyl-1,3,4-oxadiazol-2-yl)-4-methyl-1H-pyrrole-2-carboaldehyde]
19 | 30.7 | 36.9 | 35.5 | COc1ccc(C(=O)c2c(C(C)O)[nH]c(-c3nnn(CCOC(C)=O)n3)c2C)cc1Br (stereo not drawn) [Compound 130, 2-(5-(4-(3-bromo-4-methoxybenzoyl)-5-(1-hydroxyethyl)-3-methyl-1H-pyrrol-2-yl)-2H-tetrazol-2-yl)ethyl acetate]
20 | 27.4 | 22.4 | 27.8 | COc1ccc(C(=O)c2c(CO)[nH]c(-c3nnn(CCOC(C)=O)n3)c2C)cc1Br [Compound 128, 2-(5-(4-(3-bromo-4-methoxybenzoyl)-5-(hydroxymethyl)-3-methyl-1H-pyrrol-2-yl)-2H-tetrazol-2-yl)ethyl acetate]
21 | 9 | 10.6 | 19.5 | Cc1[nH]c(-c2nnc(C3CC3)o2)c(C)c1C(=O)c1cccc(CO)c1 [Compound 199, (5-(5-cyclopropyl-1,3,4-oxadiazol-2-yl)-2,4-dimethyl-1H-pyrrol-3-yl)(3-(hydroxymethyl)phenyl)methanone]
22 | 8.8 | 9.5 | 31.5 | C=Cc1nnc(-c2[nH]c(C)c(C(=O)c3cccc(Br)c3)c2C)o1 [Compound 206, (3-bromophenyl)(2,4-dimethyl-5-(5-vinyl-1,3,4-oxadiazol-2-yl)-1H-pyrrol-3-yl)methanone]
23 | 8.5 | 8.5 | 11 | CC(=O)OCCn1nnc(-c2[nH]c(C)c(C(=O)c3cccc(Br)c3)c2C)n1 [Compound 104, 2-(5-(4-(3-bromobenzoyl)-3,5-dimethyl-1H-pyrrol-2-yl)-2H-tetrazol-2-yl)ethyl acetate]
24 | 8.3 | 7.8 | 10.8 | Cc1[nH]c(-c2nnn(CCOC(=O)CN)n2)c(C)c1C(=O)c1cccc(Br)c1 [Compound 152, 2-(5-(4-(3-bromobenzoyl)-3,5-dimethyl-1H-pyrrol-2-yl)-2H-tetrazol-2-yl)ethyl 2-aminoacetate]
25 | 6.2 | 5.5 | 9.9 | Cc1[nH]c(-c2nnc(C3CC3)o2)c(C)c1C(=O)c1cccc([N+](=O)[O-])c1 [Compound 196, (5-(5-cyclopropyl-1,3,4-oxadiazol-2-yl)-2,4-dimethyl-1H-pyrrol-3-yl)(3-nitrophenyl)methanone]
26 | 2.6 | 1.4 | 2.1 | Cc1[nH]c(-c2nnc(C3CC3)o2)c(C)c1C(=O)c1cc(Br)ccc1O [Compound 241, (5-bromo-2-hydroxyphenyl)(5-(5-cyclopropyl-1,3,4-oxadiazol-2-yl)-2,4-dimethyl-1H-pyrrol-3-yl)methanone]
27 | 0.9 | 1.4 | 3.9 | CCc1nnc(-c2[nH]c(C)c(C(=O)c3ccc(OC)c(Br)c3)c2C)o1 [Compound 197, (3-bromo-4-methoxyphenyl)(5-(5-ethyl-1,3,4-oxadiazol-2-yl)-2,4-dimethyl-1H-pyrrol-3-yl)methanone]
28 | 0.3 | 0.3 | 0.4 | C=Cc1[nH]c(-c2nnc(C3CC3)o2)c(C)c1C(=O)c1cccc(Br)c1 [Compound 260, (3-bromophenyl) (5-(5-cyclopropyl-1,3,4-oxadiazol-2-yl)-4-methyl-2-vinyl-1H-pyrrol-3-yl)methanone]
